Experimental data published in patent US20090209613A1, “Use of allymercaptocaptopril for treating or preventing obesity and obesity related diseases” (Yeda Researc And Development Co. Ltd. at the Weizmann …, priority 2005, published 2009).

Legend:
[1] = cited from earlier work
[2] = Systolic blood pressure of SHROB rats fed drug-supplemented chow; format: in vivo, rat
Description: Briefly, animals were housed individually at a constant temperature of 21° C. on a 12:12 hours light/dark cycle. […] The procedures were carried out in accordance with applicable laws and accepted guidelines for animal welfare.
(§1) Eight SHROB rats (4 males, 4 females) were used in each treatment group. Animals were fed with chow supplemented with either CPSSA or captopril, or with standard (non-supplemented) chow diet, which served as a control. Measurements of body weight, food consumption and blood pressure were conducted 3 times a week for the duration of the experiment.

[3] = Body weight gain of SHROB rats fed drug-supplemented chow; format: in vivo, rat; conditions: for effect on body weight gain: compared with non-treated control, FIG. 1
Description: (§2) Animals: Obese spontaneously […] rats with a naturally occurring knockout of the leptin receptor (SHROB; Koletsky et al., pp. 143-158 in: Sima AAF and Shafrir (eds) Animal Models of Diabetes: A Primer, Harwood, Singapore, 2001) were used. Adult (4-5 months old) male and female SHROB were maintained essentially as described by Velliquette and Emsberger (JPET 307: 1104-1111, 2003). Briefly, animals were housed individually at a constant temperature of 21° C. on a 12:12 hours light/dark cycle. The animals were given ad libitum access to food (Teklad 8664 rat chow) and were maintained for a period of 60 days. The procedures were carried out in accordance with applicable laws and accepted guidelines for animal welfare.
(§3) Either CPSSA or captopril were dissolved in a 20% ethanol solution, chilled on ice, and were then thoroughly mixed with powdered rat chow in equivalent molar amounts of 1.107 and 0.827 gram/kg, respectively.
as §1

[4] = Food consumption of SHROB rats fed drug-supplemented chow; format: in vivo, rat; conditions: throughout the experiment, FIG. 2
Description: as §2, §3, §1

[5] = in vivo; cited from earlier work
[6] = day 20, drug in chow ad libitum
[7] = day 53, drug in chow ad libitum

SMILES | stability in blood or plasma ([1]; blood or plasma of mammals) | reaction with serum proteins ([1]; serum proteins) | effect on blood pressure ([2]; FIG. 3) | average systolic blood pressure ([2]; day 14) | average systolic blood pressure ([2]; day 28) | average systolic blood pressure ([2]; day 56) | effect on body weight gain [3] | average body weight gain [3, 6] [%] | average body weight gain [3, 7] [%] | food uptake [4] | blood pressure [5] | serum level of insulin [5] | serum level of triglycerides [5]
C=CCSSC[C@H](C)C(=O)N1CCC[C@H]1C(=O)O [CPSSA, Allylmercaptocaptopril] | stable in blood or plasma of mammals | reacts very sluggishly with serum proteins | substantially reduced the blood pressure | 165.6 | 146.8 | 140.3 | effectively prevented body weight gain | 0.6 | −0.1 | no differences were observed in the food uptake | significantly decreases blood pressure | reduces | reduces
C[C@H](CS)C(=O)N1CCC[C@H]1C(=O)O [captopril] | – | – | – | 165.5 | 159.3 | 159.7 | had no effect on body weight gain | 7.3 | 11.8 | no differences were observed in the food uptake | – | – | –
